Columns and labels:
Type in all cases: cell-based
Details in all cases: hPBMC, compound 500 nM, 24 hours, Western blot
[1] = target: GSPT1 (Homo sapiens (Human), UniProt P15170+Q96SW2); experiment: Western blot, substrate protein expression in hPBMC: GSPT1
Procedure: (§1) The effect of the compounds of the present disclosure on the expression of target proteins in cells was detected using conventional Western blot analysis.
(§2) Human peripheral blood mononuclear cells (hPBMCs) at a density of 1×10^6 cells/mL were thawed according to the PBMC Recovery Protocol (Milecell Biotechnologies Inc, Shanghai). […] After 24 hours of compounds treatment, cells were harvested and lysed in RIPA protein lysate containing phosphatase inhibitors on ice for 30-60 min, followed by centrifugation. The supernatant was aspirated as the extracted total cell protein. The protein concentration of the supernatant was determined using the conventional BCA (Bicinchoninic Acid) assay. The supernatant was then mixed with 4× SDS sample loading buffer, denatured at 95° C. for 5 minutes, and then subjected to SDS-PAGE electrophoresis on a polyacrylamide gel. Proteins were then transferred to a nitrocellulose (NC) membrane, blocked at room temperature for 1-2 h, and processed for antibody incubation and detection according to the manufacturer's instructions (Cell Signaling Technology).
(§3) Half-Maximal Degradation Concentration value (the drug concentration required for degrading proteins by 50%, abbreviated as DC50) reads method: comparing the grayscale values of Western blot bands from drug-treated samples (protein degrader compounds) with those from blank (DMSO-treated) controls, and identifying the drug concentration range at which the grayscale value is half that of the DMSO-treated control bands.
(§4) DC50 values can be calculated using ImageJ software to measure grayscale values of Western blot bands from drug-treated samples. The relationship curve between drug concentration and grayscale values is fitted to estimate the drug concentration corresponding to half the grayscale value.
(§5) Target protein remaining (%) refers to the percentage of target protein remaining in hPBMC cells after treatment with protein degrader compounds.
(§6) Calculation method for protein remaining (%): Use ImageJ software to measure grayscale values of Western blot bands from drug (protein degrader)-treated samples. The grayscale value of drug-treated bands is divided by that of internal control protein bands, and the resulting quotient is normalized to obtain the relative percentage of remaining target protein after protein degrader treatment.
(§7) Target protein degradation rate (%)=100%-target protein remaining (%).

[2] = target: IKZF3 (Homo sapiens (Human), UniProt Q96SW2+Q9UKT9); experiment: Western blot, substrate protein expression in hPBMC: IKZF3
IKZF3, sequence (Q9UKT9 whole entry): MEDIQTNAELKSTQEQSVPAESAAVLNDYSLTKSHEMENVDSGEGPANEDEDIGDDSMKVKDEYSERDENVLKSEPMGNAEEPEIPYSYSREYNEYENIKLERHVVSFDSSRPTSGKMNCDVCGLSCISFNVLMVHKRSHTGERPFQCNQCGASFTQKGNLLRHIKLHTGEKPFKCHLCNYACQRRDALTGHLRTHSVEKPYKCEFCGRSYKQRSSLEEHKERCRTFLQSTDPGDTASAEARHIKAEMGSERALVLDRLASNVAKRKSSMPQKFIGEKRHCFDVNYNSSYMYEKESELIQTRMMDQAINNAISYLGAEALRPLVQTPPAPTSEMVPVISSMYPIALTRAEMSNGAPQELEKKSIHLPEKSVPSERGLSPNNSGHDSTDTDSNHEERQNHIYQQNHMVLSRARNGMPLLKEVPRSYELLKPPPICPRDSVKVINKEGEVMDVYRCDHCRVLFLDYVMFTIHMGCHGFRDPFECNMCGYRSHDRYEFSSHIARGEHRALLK
IKZF3, sequence (Q96SW2 whole entry): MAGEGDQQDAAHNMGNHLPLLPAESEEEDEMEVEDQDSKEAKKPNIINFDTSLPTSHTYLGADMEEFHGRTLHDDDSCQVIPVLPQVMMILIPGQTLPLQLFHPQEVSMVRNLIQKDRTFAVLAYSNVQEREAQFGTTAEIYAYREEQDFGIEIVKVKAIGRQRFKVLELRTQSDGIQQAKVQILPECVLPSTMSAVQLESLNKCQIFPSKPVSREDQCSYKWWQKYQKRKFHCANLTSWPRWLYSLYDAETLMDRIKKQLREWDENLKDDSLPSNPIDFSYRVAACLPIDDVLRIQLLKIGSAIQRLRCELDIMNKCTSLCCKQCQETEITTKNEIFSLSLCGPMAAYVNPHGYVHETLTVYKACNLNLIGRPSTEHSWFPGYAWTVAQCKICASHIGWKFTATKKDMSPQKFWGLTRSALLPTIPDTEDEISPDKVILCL
IKZF3, sequence (Q16531 whole entry partner): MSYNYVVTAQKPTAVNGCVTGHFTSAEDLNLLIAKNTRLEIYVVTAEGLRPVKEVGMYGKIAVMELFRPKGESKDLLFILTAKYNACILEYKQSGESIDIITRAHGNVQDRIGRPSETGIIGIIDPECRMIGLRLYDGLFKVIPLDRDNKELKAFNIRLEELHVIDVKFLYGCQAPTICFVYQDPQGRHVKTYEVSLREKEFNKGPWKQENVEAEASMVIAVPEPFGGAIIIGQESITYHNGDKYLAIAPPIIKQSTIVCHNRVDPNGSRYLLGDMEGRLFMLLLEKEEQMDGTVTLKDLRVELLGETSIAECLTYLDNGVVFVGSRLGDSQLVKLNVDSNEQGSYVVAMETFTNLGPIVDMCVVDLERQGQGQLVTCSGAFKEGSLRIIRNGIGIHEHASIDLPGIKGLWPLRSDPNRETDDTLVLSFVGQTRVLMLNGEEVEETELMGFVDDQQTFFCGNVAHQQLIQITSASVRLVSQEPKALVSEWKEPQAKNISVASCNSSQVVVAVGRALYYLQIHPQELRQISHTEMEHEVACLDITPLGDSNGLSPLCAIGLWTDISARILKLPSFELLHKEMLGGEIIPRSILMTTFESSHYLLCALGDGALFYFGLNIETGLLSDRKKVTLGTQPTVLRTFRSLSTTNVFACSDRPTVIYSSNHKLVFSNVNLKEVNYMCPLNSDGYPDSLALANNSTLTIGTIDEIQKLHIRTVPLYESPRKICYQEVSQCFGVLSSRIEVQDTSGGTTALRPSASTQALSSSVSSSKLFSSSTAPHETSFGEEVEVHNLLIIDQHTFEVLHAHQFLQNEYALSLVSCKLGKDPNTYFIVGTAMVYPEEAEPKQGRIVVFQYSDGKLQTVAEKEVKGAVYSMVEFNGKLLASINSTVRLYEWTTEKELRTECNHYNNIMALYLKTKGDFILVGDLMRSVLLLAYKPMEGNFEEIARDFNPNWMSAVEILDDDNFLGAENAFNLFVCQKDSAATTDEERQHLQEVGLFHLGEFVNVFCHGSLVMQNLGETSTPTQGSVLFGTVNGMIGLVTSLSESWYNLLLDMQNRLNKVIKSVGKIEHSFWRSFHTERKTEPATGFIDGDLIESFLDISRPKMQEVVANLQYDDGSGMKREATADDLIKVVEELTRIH
Procedure: as §1, §2, §3, §4, §5, §6, §7

[3] = target: IKZF1 (Homo sapiens (Human), UniProt Q13422+Q96SW2); experiment: Western blot, substrate protein expression in hPBMC: IKZF1
IKZF1, sequence (Q13422 whole entry): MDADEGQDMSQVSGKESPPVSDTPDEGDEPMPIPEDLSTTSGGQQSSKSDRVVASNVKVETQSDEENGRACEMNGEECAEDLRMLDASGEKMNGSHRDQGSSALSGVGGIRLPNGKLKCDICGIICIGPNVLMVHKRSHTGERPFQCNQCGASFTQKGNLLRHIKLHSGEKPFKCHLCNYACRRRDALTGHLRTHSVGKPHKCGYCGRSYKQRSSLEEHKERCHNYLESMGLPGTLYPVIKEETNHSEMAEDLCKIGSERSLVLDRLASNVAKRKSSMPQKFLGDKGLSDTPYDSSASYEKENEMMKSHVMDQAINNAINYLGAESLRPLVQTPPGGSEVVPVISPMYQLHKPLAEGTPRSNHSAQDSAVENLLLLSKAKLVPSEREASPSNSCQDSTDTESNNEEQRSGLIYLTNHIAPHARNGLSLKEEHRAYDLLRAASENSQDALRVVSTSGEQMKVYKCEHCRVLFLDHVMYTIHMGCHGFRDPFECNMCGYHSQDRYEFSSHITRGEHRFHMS
IKZF1, sequence (Q96SW2 whole entry): as the sequence (Q96SW2 whole entry) above
IKZF1, sequence (Q16531 whole entry partner): as the sequence (Q16531 whole entry partner) above
Procedure: as §1, §2, §3, §4, §5, §6, §7

GSPT1, sequence (P15170 whole entry): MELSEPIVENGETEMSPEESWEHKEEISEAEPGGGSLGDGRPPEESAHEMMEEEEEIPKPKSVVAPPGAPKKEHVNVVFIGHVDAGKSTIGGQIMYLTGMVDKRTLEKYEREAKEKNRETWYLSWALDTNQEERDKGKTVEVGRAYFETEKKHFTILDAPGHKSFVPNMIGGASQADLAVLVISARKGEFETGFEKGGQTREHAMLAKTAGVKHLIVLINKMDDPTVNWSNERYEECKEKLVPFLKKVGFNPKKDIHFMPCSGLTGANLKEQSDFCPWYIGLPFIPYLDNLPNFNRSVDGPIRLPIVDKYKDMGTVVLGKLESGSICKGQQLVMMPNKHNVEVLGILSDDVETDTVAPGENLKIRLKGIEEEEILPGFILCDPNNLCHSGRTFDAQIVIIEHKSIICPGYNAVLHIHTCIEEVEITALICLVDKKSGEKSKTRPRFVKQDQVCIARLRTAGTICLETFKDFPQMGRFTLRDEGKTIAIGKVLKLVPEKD
GSPT1, sequence (Q96SW2 whole entry): as the sequence (Q96SW2 whole entry) above
GSPT1, sequence (Q16531 whole entry partner): as the sequence (Q16531 whole entry partner) above

SMILES: O=C1CCC(N2C(=O)c3ccc(N4C5CCC4CN(C(c4ccccc4)c4ccccc4)C5)cc3C2=O)C(=O)N1 (stereo not drawn) [GT-05937, 5-(3-benzhydryl-3,8-diazabicyclo[3.2.1]octan-8-yl)-2-(2,6-dioxopiperidin-3-yl) isoindoline-1,3-dione]
- substrate protein remaining % GSPT1 [1]: A (A represents 0% ≤ substrate protein remaining % ≤ 50%)
- substrate protein remaining % IKZF3 [2]: B (B represents substrate protein remaining % > 50%)
- substrate protein remaining % IKZF1 [3]: B (B represents substrate protein remaining % > 50%)

SMILES: O=C1CCC(N2C(=O)c3ccc(C(=O)N4CCN(C(c5ccc(Cl)cc5)c5ccc(Cl)cc5)CC4)cc3C2=O)C(=O)N1 (stereo not drawn) [GT-05890, 5-(4-(bis(4-chlorophenyl)methyl)piperazine-1-carbonyl)-2-(2,6-dioxopiperidin-3-yl) isoindoline-1,3-dione]
- substrate protein remaining % GSPT1 [1]: A (A represents 0% ≤ substrate protein remaining % ≤ 50%)
- substrate protein remaining % IKZF3 [2]: B (B represents substrate protein remaining % > 50%)
- substrate protein remaining % IKZF1 [3]: B (B represents substrate protein remaining % > 50%)

SMILES: O=C1CCC(N2C(=O)c3ccc(CN4CCN(C(c5ccccc5)c5ccccn5)CC4)cc3C2=O)C(=O)N1 (stereo not drawn) [GT-05723, 2-(2,6-dioxopiperidin-3-yl)-5-((4-(phenyl(pyridin-2-yl)methyl)piperazin-1-yl)methyl) isoindoline-1,3-dione]
- substrate protein remaining % GSPT1 [1]: A (A represents 0% ≤ substrate protein remaining % ≤ 50%)
- substrate protein remaining % IKZF3 [2]: B (B represents substrate protein remaining % > 50%)
- substrate protein remaining % IKZF1 [3]: B (B represents substrate protein remaining % > 50%)

SMILES: CC1(C)CN(C(=O)c2ccc3c(c2)C(=O)N(C2CCC(=O)NC2=O)C3=O)CCN1C(c1ccccc1)c1ccccc1 (stereo not drawn) [GT-06278, 5-(4-benzhydryl-3,3-dimethylpiperazine-1-carbonyl)-2-(2,6-dioxopiperidin-3-yl) isoindoline-1,3-dione]
- substrate protein remaining % GSPT1 [1]: A (A represents 0% ≤ substrate protein remaining % ≤ 50%)
- substrate protein remaining % IKZF3 [2]: B (B represents substrate protein remaining % > 50%)
- substrate protein remaining % IKZF1 [3]: B (B represents substrate protein remaining % > 50%)

SMILES: O=C1CCC(N2C(=O)c3ccc(CN4CCN(C(c5ccc(OCc6ccccc6)cc5)c5ccc(OCc6ccccc6)cc5)CC4)cc3C2=O)C(=O)N1 (stereo not drawn) [GT-06425, 5-((4-(bis(4-(benzyloxy)phenyl)methyl)piperazin-1-yl)methyl)-2-(2,6-dioxopiperidin-3-yl) isoindoline-1,3-dione]
- substrate protein remaining % GSPT1 [1]: A (A represents 0% ≤ substrate protein remaining % ≤ 50%)
- substrate protein remaining % IKZF3 [2]: A (A represents 0% ≤ substrate protein remaining % ≤ 50%)
- substrate protein remaining % IKZF1 [3]: B (B represents substrate protein remaining % > 50%)

SMILES: O=C1CCC(N2C(=O)c3ccc(CN4CCN(C(c5ccc(Cl)cc5)c5ccc(Cl)cc5)CC4)cc3C2=O)C(=O)N1 (stereo not drawn) [GT-05727, 5-((4-(bis(4-chlorophenyl)methyl)piperazin-1-yl)methyl)-2-(2,6-dioxopiperidin-3-yl) isoindoline-1,3-dione]
- substrate protein remaining % GSPT1 [1]: A (A represents 0% ≤ substrate protein remaining % ≤ 50%)
- substrate protein remaining % IKZF3 [2]: A (A represents 0% ≤ substrate protein remaining % ≤ 50%)
- substrate protein remaining % IKZF1 [3]: B (B represents substrate protein remaining % > 50%)

SMILES: O=C1CCC(N2C(=O)c3ccc(CN4C[C@H]5C[C@@H]4CN5C(c4ccccc4)c4ccccc4)cc3C2=O)C(=O)N1 (stereo partly drawn) [GT-05959, 5-(((1R,4R)-5-benzhydryl-2,5-diazabicyclo[2.2.1]heptan-2-yl)methyl)-2-(2,6-dioxopiperidin-3-yl) isoindoline-1,3-dione]
- substrate protein remaining % GSPT1 [1]: A (A represents 0% ≤ substrate protein remaining % ≤ 50%)
- substrate protein remaining % IKZF3 [2]: B (B represents substrate protein remaining % > 50%)
- substrate protein remaining % IKZF1 [3]: B (B represents substrate protein remaining % > 50%)

SMILES: C[C@@H]1CN(C(c2ccccc2)c2ccccc2)CCN1C(=O)c1ccc2c(c1)C(=O)N(C1CCC(=O)NC1=O)C2=O (stereo partly drawn) [GT-06094, 5-((R)-4-benzhydryl-2-methylpiperazine-1-carbonyl)-2-(2,6-dioxopiperidin-3-yl) isoindoline-1,3-dione]
- substrate protein remaining % GSPT1 [1]: A (A represents 0% ≤ substrate protein remaining % ≤ 50%)
- substrate protein remaining % IKZF3 [2]: B (B represents substrate protein remaining % > 50%)
- substrate protein remaining % IKZF1 [3]: B (B represents substrate protein remaining % > 50%)

SMILES: O=C1CCC(N2C(=O)c3ccc(C(=O)N4CCN(C(c5ccc(F)cc5)c5ccc(F)cc5)CC4)cc3C2=O)C(=O)N1 (stereo not drawn) [GT-05885, 5-(4-(bis(4-fluorophenyl)methyl)piperazine-1-carbonyl)-2-(2,6-dioxopiperidin-3-yl) isoindoline-1,3-dione]
- substrate protein remaining % GSPT1 [1]: A (A represents 0% ≤ substrate protein remaining % ≤ 50%)
- substrate protein remaining % IKZF3 [2]: B (B represents substrate protein remaining % > 50%)
- substrate protein remaining % IKZF1 [3]: B (B represents substrate protein remaining % > 50%)

SMILES: O=C1CCC(N2C(=O)c3ccc(CN4CCN(C(c5ccccc5)c5ccccc5)CC4C(F)(F)F)cc3C2=O)C(=O)N1 (stereo not drawn) [GT-06099, 5-((4-benzhydryl-2-(trifluoromethyl)piperazin-1-yl)methyl)-2-(2,6-dioxopiperidin-3-yl) isoindoline-1,3-dione]
- substrate protein remaining % GSPT1 [1]: A (A represents 0% ≤ substrate protein remaining % ≤ 50%)
- substrate protein remaining % IKZF3 [2]: B (B represents substrate protein remaining % > 50%)
- substrate protein remaining % IKZF1 [3]: B (B represents substrate protein remaining % > 50%)

SMILES: O=C1CCC(N2C(=O)c3ccc(CN4CCN(C(c5ccccc5)c5ccc(Br)cc5)CC4)cc3C2=O)C(=O)N1 (stereo not drawn) [GT-06639, 5-((4-((4-bromophenyl) (phenyl)methyl)piperazin-1-yl)methyl)-2-(2,6-dioxopiperidin-3-yl) isoindoline-1,3-dione]
- substrate protein remaining % GSPT1 [1]: A (A represents 0% ≤ substrate protein remaining % ≤ 50%)
- substrate protein remaining % IKZF3 [2]: A (A represents 0% ≤ substrate protein remaining % ≤ 50%)
- substrate protein remaining % IKZF1 [3]: A (A represents 0% ≤ substrate protein remaining % ≤ 50%)

SMILES: O=C1CCC(N2C(=O)c3ccc(C(=O)N4CCC(N(c5ccccc5)c5ccccn5)CC4)cc3C2=O)C(=O)N1 (stereo not drawn) [GT-05925, 2-(2,6-dioxopiperidin-3-yl)-5-(4-(phenyl(pyridin-2-yl)amino)piperidine-1-carbonyl) isoindoline-1,3-dione]
- substrate protein remaining % GSPT1 [1]: A (A represents 0% ≤ substrate protein remaining % ≤ 50%)
- substrate protein remaining % IKZF3 [2]: B (B represents substrate protein remaining % > 50%)
- substrate protein remaining % IKZF1 [3]: B (B represents substrate protein remaining % > 50%)

SMILES: O=C1CCC(N2C(=O)c3ccc(C(=O)N4CC5CN(C(c6ccccc6)c6ccccc6)CC5C4)cc3C2=O)C(=O)N1 (stereo not drawn) [GT-06068, 5-(5-benzhydryloctahydropyrrolo[3,4-c]pyrrole-2-carbonyl)-2-(2,6-dioxopiperidin-3-yl) isoindoline-1,3-dione]
- substrate protein remaining % GSPT1 [1]: A (A represents 0% ≤ substrate protein remaining % ≤ 50%)
- substrate protein remaining % IKZF3 [2]: B (B represents substrate protein remaining % > 50%)
- substrate protein remaining % IKZF1 [3]: B (B represents substrate protein remaining % > 50%)

SMILES: O=C1CCC(N2C(=O)c3ccc(C(=O)N4CC5CCC(C4)N5C(c4ccccc4)c4ccccc4)cc3C2=O)C(=O)N1 (stereo not drawn) [GT-05982, 5-(8-benzhydryl-3,8-diazabicyclo[3.2.1]octane-3-carbonyl)-2-(2,6-dioxopiperidin-3-yl) isoindoline-1,3-dione]
- substrate protein remaining % GSPT1 [1]: A (A represents 0% ≤ substrate protein remaining % ≤ 50%)
- substrate protein remaining % IKZF3 [2]: B (B represents substrate protein remaining % > 50%)
- substrate protein remaining % IKZF1 [3]: B (B represents substrate protein remaining % > 50%)

SMILES: CC1CN(Cc2ccc3c(c2)C(=O)N(C2CCC(=O)NC2=O)C3=O)CC(C)N1C(c1ccccc1)c1ccccc1 (stereo not drawn) [GT-05968, 5-((4-benzhydryl-3,5-dimethylpiperazin-1-yl)methyl)-2-(2,6-dioxopiperidin-3-yl) isoindoline-1,3-dione]
- substrate protein remaining % GSPT1 [1]: A (A represents 0% ≤ substrate protein remaining % ≤ 50%)
- substrate protein remaining % IKZF3 [2]: B (B represents substrate protein remaining % > 50%)
- substrate protein remaining % IKZF1 [3]: B (B represents substrate protein remaining % > 50%)

SMILES: O=C1CCC(N2Cc3cc(C(=O)N4CCCN(C(c5ccccc5)c5ccccc5)CC4)ccc3C2=O)C(=O)N1 (stereo not drawn) [GT-05892, 3-(5-(4-benzhydryl-1,4-diazepane-1-carbonyl)-1-oxoisoindolin-2-yl)piperidine-2,6-dione]
- substrate protein remaining % GSPT1 [1]: A (A represents 0% ≤ substrate protein remaining % ≤ 50%)
- substrate protein remaining % IKZF3 [2]: B (B represents substrate protein remaining % > 50%)
- substrate protein remaining % IKZF1 [3]: B (B represents substrate protein remaining % > 50%)
